{
  "source": "patent US8404646B2",
  "about": "“Methods for preventing or treating mitochondrial permeability transition” (Cornell Research Foundation, Inc., priority 2003, dated 2013)",
  "key": {"[1]": {"system": "Caco-2", "experiment": "Cellular uptake of [3H][Dmt1]DALDA into cell monolayers", "type": "cell-based, human", "protocol": "(§1) The cellular uptake of [^3H][Dmt^1]DALDA was studied using a human intestinal epithelial cell line (Caco-2), and confirmed with SH-SY5Y (human neuroblastoma cell), HEK293 (human embryonic kidney cell) and CRFK cells (kidney epithelial cell). Monolayers of cells were grown on 12-well plates (5×10^5 cells/well) coated with collagen for 3 days. On day 4, cells were washed twice with pre-wanned HBSS, and then incubated with 0.2 ml of HBSS containing either 250 nM [^3H][Dmt^1]DALDA at 37° C. or 4° C. for various times up to 1 h.\nIn a separate experiment, cells were incubated with a range of [Dmt^1]DALDA concentrations (1 μM-3 mM) for 1 h at 37° C. At the end of the incubation period, cells were washed 4 times with HBSS, and 0.2 ml of 0.1N NaOH with 1% SDS was added to each well. The cell contents were then transferred to scintillation vials and radioactivity counted. To distinguish between internalized radioactivity from surface-associated radioactivity, an acid-wash step was included. Prior to cell lysis, cells were incubated with 0.2 ml of 0.2 M acetic acid/0.05 M NaCl for 5 min on ice."}, "[2]": {"system": "HEK293", "experiment": "Cellular uptake of [3H][Dmt1]DALDA, confirmation", "type": "cell-based, human", "protocol": "as §1"}, "[3]": {"system": "SH-SY5Y", "experiment": "Cellular uptake of [3H][Dmt1]DALDA, confirmation", "type": "cell-based, human", "protocol": "as §1"}, "[4]": {"system": "CRFK cells", "experiment": "Cellular uptake of [3H][Dmt1]DALDA, confirmation", "type": "cell-based", "protocol": "as §1"}, "[5]": {"system": "isolated mouse liver mitochondria", "experiment": "Uptake into isolated mitochondria (fluorescence quenching, radioactivity in pellet)", "type": "in vitro ADME", "protocol": "(FIG. 1A) Mitochondrial uptake of SS-19 was determined using fluorescence spectrophotometry (ex/em=320/420 nm). […] Pretreatment of mitochondria with FCCP (1.5 μM) reduced quenching by <20% (black line). […] Uptake was stopped by centrifugation (16000×g) for 5 min at 4° C., and radioactivity determined in the pellet. […] Data are shown as mean±s.e.; n=3. *, P<0.05 by Student's t-test. […] Black line, TMRM; red line, SS-19.\nTo isolate mitochondria from mouse liver, mice were sacrificed by decapitation. The liver was removed and rapidly placed into chilled liver homogenization medium. The liver was finely minced using scissors and then homogenized by hand using a glass homogenizer.\nThe homogenate was centrifuged for 10 min at 1000×g at 4° C. The supernatant was aspirated and transferred to polycarbonate tubes and centrifuged again for 10 min. at 3000×g, 4° C. The resulting supernatant was removed, and the fatty lipids on the side-wall of the tube were carefully wiped off.\nThe pellet was resuspended in liver homogenate medium and the homogenization repeated twice. The final purified mitochondrial pellet was resuspended in medium. Protein concentration in the mitochondrial preparation was determined by the Bradford procedure.\nApproximately 1.5 mg mitochondria in 400 μl buffer was incubated with [^3H][Dmt^1]DALDA for 5-30 min at 37° C. The mitochondria were then centrifuged down and the amount of radioactivity determined in the mitochondrial fraction and buffer fraction. […] Thus [Dmt^1]DALDA is concentrated in mitochondria.\nThus uptake of [Dmt^1, AtnDap^4]DALDA was not potential-dependent.\nTo confirm that the mitochondrial targeting was not an artifact of the fluorophore, we also examined mitochondrial uptake of [^3H][Dmt^1]DALDA. Isolated mitochondria were incubated with [^3H][Dmt^1]DALDA and radioactivity determined in the mitochondrial pellet and supernatant.\nWe next examined the effect of mitochondrial swelling on the accumulation of [Dmt^1, AtnDap^4]DALDA in mitochondria by using alamethicin to induce swelling and rupture of the outer membrane. […] Thus, [Dmt^1]DALDA is associated with mitochondrial membranes."}, "[6]": {"experiment": "Estimated concentration in isolated perfused guinea pig hearts", "conditions": "coronary perfusate 0.1 μM"}, "[7]": {"system": "isolated mouse liver mitochondria", "experiment": "Mitochondrial respiration (oxygen consumption)", "type": "biochemical", "conditions": "100 μM"}, "[8]": {"system": "mitochondrial permeability transition (MPT) in isolated mitochondria", "experiment": "Mitochondrial membrane potential and MPT measured with TMRM", "type": "biochemical, mouse", "conditions": "for mitochondrial potential / MPT on addition of peptide alone: 200 μM, TMRM; for tolerance of mitochondria to cumulative Ca2+ additions prior to MPT: 50 and 100 μM", "protocol": "In addition to having no direct effect on mitochondrial potential, [Dmt^1]DALDA was able to protect against MPT induced by Ca^2+ overload.\n3-Nitropropionic acid (3NP) is an irreversible inhibitor of succinate dehydrogenase in complex II of the electron transport chain. Addition of 3NP (1 mM) to isolated mitochondria caused dissipation of mitochondrial potential and onset of MPT (FIG. 2C)."}, "[9]": {"system": "Caco-2 cells", "experiment": "3NP-induced mitochondrial depolarization in cells (TMRM, LSCM)", "type": "cell-based, human", "conditions": "3NP 10 mM, peptide 0.1 μM, 4 h", "source_text": "In control cells, the mitochondria are clearly visualized as fine streaks throughout the cytoplasm."}, "[10]": {"system": "isolated mitochondria", "experiment": "Mitochondrial swelling (absorbance 540 nm or light scattering 570 nm)", "type": "biochemical, mouse", "protocol": "(§2) MPT pore opening results in mitochondrial swelling. We examined the effects of [Dmt^1]DALDA on mitochondrial swelling by measuring reduction in absorbance at 540 nm (A540). The mitochondrial suspension was then centrifuged and cytochrome c in the mitochondrial pellet and supernatant determined by a commercially-available ELISA kit.\n(§3) The methods for study are as described above for SS-02. In this example, mitochondrial swelling was measured using light scattering monitored at 570 nm."}, "[11]": {"system": "isolated mitochondria", "experiment": "Cytochrome c release from isolated mitochondria (ELISA)", "type": "biochemical, mouse", "conditions": "Ca2+ overload", "protocol": "as §2, §3"}, "[12]": {"system": "isolated perfused guinea pig heart", "experiment": "Ischemia-reperfusion myocardial stunning in isolated perfused heart (Langendorff)", "conditions": "100 nM, 30 min global ischemia", "protocol": "Guinea pig hearts were rapidly isolated, and the aorta was cannulated in situ and perfused in a retrograde fashion with an oxygenated Krebs-Henseleit solution (pH 7.4) at 34° C. The heart was then excised, mounted on a modified Langendorff perfusion apparatus, and perfused at constant pressure (40 cm H2O). Contractile force was measured with a small hook inserted into the apex of the left ventricle and the silk ligature tightly connected to a force-displacement transducer. Coronary flow was measured by timed collection of pulmonary artery effluent.\nReperfusion was carried out with the same solution used prior to ischemia."}, "[13]": {"system": "isolated guinea pig hearts", "experiment": "Organ preservation: peptide in cardioplegic solution, prolonged ischemia of isolated heart", "conditions": "in St. Thomas cardioplegic solution 3 min, 90 min ischemia, 60 min reperfusion; listed as [Dmt^1]DALDA", "protocol": "We examined whether [Dmt^1]DALDA prolongs survival of organs. In this study, [Dmt^1]DALDA was added to a commonly used cardioplegic solution (St. Thomas) to determine whether [[Dmt^1]DALDA enhances survival of the heart after prolonged ischemia (model of ex vivo organ survival).\nIsolated guinea pig hearts were perfused in a retrograde fashion with an oxygenated Krebs-Henseleit solution at 34° C. After 30 min. of stabilization, the hearts were perfused with a cardioplegic solution CPS (St. Tohomas) with or without [Dmt^1]DALDA at 100 nM for 3 min. Global ischemia was then induced by complete interruption of coronary perfusion for 90 min. Reperfusion was subsequently carried out for 60 min. with oxygenated Krebs-Henseleit solution. Contractile force, heart rate and coronary flow were monitored continuously throughout the experiment."}, "[14]": {"system": "several mammalian cell types", "conditions": "energy-independent manner; cited from earlier work"}},
  "note": "Entries after “also recorded” stand apart in the source; their conditions may differ.",
  "data": [
    {"substance": "2′,6′-dimethyltyrosine-D-Arg-Phe-Lys-NH2 [SS-02]", "values": [
      {"measurement": "time at which [3H][Dmt1]DALDA was first observed in cell lysate", "setting": "[1]; 250 nM, Caco-2", "result": 5, "unit": "min"},
      {"measurement": "time to steady state levels in cell lysate", "setting": "[1]; 250 nM, Caco-2", "result": "≤ 30", "unit": "min"},
      {"measurement": "total amount recovered in the cell lysate, of the total drug", "setting": "[1]; after 1 h incubation", "result": "about 1%"},
      {"measurement": "uptake at 4° C. compared to 37° C.", "setting": "[1]; by 45 min", "result": 76.5, "unit": "%"},
      {"measurement": "uptake at 4° C. compared to 37° C.", "setting": "[1]; by 1 h", "result": 86.3, "unit": "%"},
      {"measurement": "internalization", "setting": "[2]", "result": "observed"},
      {"measurement": "internalization", "setting": "[3]", "result": "observed"},
      {"measurement": "internalization", "setting": "[4]", "result": "observed"},
      {"measurement": "decrease of radioactivity associated with mitochondrial pellet by FCCP", "setting": "[5]; 37° C., 2 min", "result": "~20", "unit": "%"},
      {"measurement": "amount of radioactivity in the pellet over time", "setting": "[5]; from 2 min to 8 min", "result": "did not change"},
      {"measurement": "Concentration of [Dmt1]DALDA in mitochondria", "setting": "[6]", "result": 1000, "unit": "µM"},
      {"measurement": "Concentration of [Dmt1]DALDA in myocyte", "setting": "[6]", "result": 5, "unit": "µM"},
      {"measurement": "oxygen consumption during state 3 or state 4", "setting": "[7]", "result": "did not alter"},
      {"measurement": "mitochondrial potential / MPT on addition of peptide alone", "setting": "[8]", "result": "did not alter mitochondrial potential"},
      {"measurement": "mitochondrial potential / MPT on addition of peptide alone", "setting": "[8]; listed as [Dmt^1]DALDA", "result": "did not cause mitochondrial depolarization or MPT"},
      {"measurement": "onset of MPT induced by 3NP", "setting": "[8]; 1 mM 3NP, 0.5, 5, 50 μM peptide", "result": "dose-dependently delayed"},
      {"measurement": "tolerance of mitochondria to cumulative Ca2+ additions prior to MPT", "setting": "[8]", "result": "increased mitochondrial tolerance"},
      {"measurement": "tolerance of mitochondria to cumulative Ca2+ additions prior to MPT", "setting": "[8]; listed as [Dmt^1]DALDA", "result": "dose-dependently increased"},
      {"measurement": "MPT induced by Ca2+ overload", "setting": "[8]; pretreatment 10 μM", "result": "prevented onset of MPT"},
      {"measurement": "mitochondrial depolarization caused by 3NP in cells", "setting": "[9]", "result": "protected against mitochondrial depolarization"},
      {"measurement": "mitochondrial swelling induced by Ca2+", "setting": "[10]; 200 μM Ca2+, absorbance at 540 nm", "result": "inhibited swelling; also recorded: dose dependently inhibited"},
      {"measurement": "mitochondrial swelling induced by MPP+", "setting": "[10]; MPP+ 300 μM", "result": "prevented mitochondrial swelling; also recorded: inhibited mitochondrial swelling"},
      {"measurement": "Ca2+-induced release of cytochrome c", "setting": "[11]", "result": "inhibited"},
      {"measurement": "myocardial contractile force during ischemia-reperfusion", "setting": "[12]", "result": "tolerated ischemia much better than buffer-treated hearts; also recorded: protects myocardial contractile force"},
      {"measurement": "contractile function after prolonged ischemia", "setting": "[13]", "result": "significantly enhanced; also recorded: significantly improved"},
      {"measurement": "penetration of the plasma membrane", "setting": "[14]", "result": "readily penetrates the plasma membrane"}
    ]}
  ]
}
